Measured values: US8975417B2, “Pyrazolopyrrolidine derivatives and their use in the treatment of disease” (Novartis AG, priority 2013, dated 2015)

Key:
[1] = biological target: nuclear BRD4-NUT foci in HCC2494 NUT midline carcinoma cells (Homo sapiens (Human), UniProt O60885+Q86Y26); experiment: Nut-foci formation assay; assay type: cell-based; conditions: 24 hours, read-out: HCS Brd4-NUT IC50
Outline: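 HCC2494 cells carrying BRD4-NUT, treated 24 h at 37 °C with 3-fold dilutions from 10 μM. Fixed and stained with anti-NUT antibody, imaged automatically to count nuclear foci per nucleus.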

[2] = biological target: His-Brd3(20-477) (Homo sapiens (Human), UniProt Q15059); experiment: TR-FRET in-vitro binding assay for BRD3; conditions: biochemical
Sequence of His-Brd3(20-477) (Q15059 20-477): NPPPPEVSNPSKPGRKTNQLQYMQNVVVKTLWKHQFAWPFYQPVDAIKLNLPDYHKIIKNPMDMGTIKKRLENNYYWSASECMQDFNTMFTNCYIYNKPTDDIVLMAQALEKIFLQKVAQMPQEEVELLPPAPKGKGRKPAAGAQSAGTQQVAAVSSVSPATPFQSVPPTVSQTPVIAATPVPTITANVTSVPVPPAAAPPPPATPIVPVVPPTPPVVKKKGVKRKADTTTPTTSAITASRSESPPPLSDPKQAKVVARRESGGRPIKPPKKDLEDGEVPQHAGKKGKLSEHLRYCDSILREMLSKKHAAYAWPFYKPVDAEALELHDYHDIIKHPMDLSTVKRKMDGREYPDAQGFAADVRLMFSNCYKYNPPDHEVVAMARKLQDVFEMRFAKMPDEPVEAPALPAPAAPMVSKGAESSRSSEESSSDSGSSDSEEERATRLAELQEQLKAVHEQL
Outline: (§1)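 Bromodomain protein (45 nM in its addition solution) and tetra-acetylated histone H4 peptide (AcK5/8/12/16; 60 nM in its addition solution) were incubated with compounds for 35 min at 30 °C in 50 mM HEPES pH 7.5, 50 mM NaCl, 0.005% Tween20, 0.1% BSA. Eu-anti-His6 plus streptavidin-allophycocyanin detection followed, with TR-FRET read-out.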

[3] = biological target: His-Brd4(44-477) (Homo sapiens (Human), UniProt O60885); experiment: TR-FRET in-vitro binding assay for BRD4; conditions: biochemical
Outline: as §1

SMILES	IC50 [1]	IC50 [2]	IC50 [3]
CNC(=O)n1nc(C)c2c1C(=O)N(c1cc(C)c(=O)n(C)c1)C2c1ccc(Cl)cc1 (stereo not drawn) [Example 143, 4-(4-chlorophenyl)-5-(1,5-dimethyl-6-oxo-1,6-dihydropyridin-3-yl)-N,3-dimethyl-6-oxo-5,6-dihydropyrrolo[3,4-c]pyrazole-1(4H)-carboxamide]	206 nM	270 nM	300 nM
CNC(=O)n1nc(C)c2c1C(=O)N(c1cc(C)c3nnc(C)n3c1)C2c1ccc(Cl)cc1 (stereo not drawn) [Example 145, 4-(4-chlorophenyl)-5-(3,8-dimethyl-[1,2,4]triazolo[4,3-a]pyridin-6-yl)-N,3-dimethyl-6-oxo-5,6-dihydropyrrolo[3,4-c]pyrazole-1(4H)-carboxamide]	108 nM	190 nM	140 nM
CCc1c2c(nn1C(=O)N(C)C)C(=O)N(c1cc(C)c(=O)n(C)c1)C2c1ccc(Cl)cc1 (stereo not drawn) [Example 148, 4-(4-chlorophenyl)-5-(1,5-dimethyl-6-oxo-1,6-dihydropyridin-3-yl)-3-ethyl-N,N-dimethyl-6-oxo-5,6-dihydropyrrolo[3,4-c]pyrazole-2(4H)-carboxamide]	118 nM	160 nM	270 nM
Cc1nn(C2CNC2)c2c1C(c1ccc(Cl)cc1)N(c1cc(C)c3nnc(C)n3c1)C2=O (stereo not drawn) [Example 151, 1-(azetidin-3-yl)-4-(4-chlorophenyl)-5-(3,8-dimethyl-[1,2,4]triazolo[4,3-a]pyridin-6-yl)-3-methyl-4,5-dihydropyrrolo[3,4-c]pyrazol-6(1H)-one]	554 nM	160 nM	130 nM
Cc1cc(N2C(=O)c3nn(C4CNC4)c(C)c3C2c2ccc(Cl)cc2)cn2c(C)nnc12 (stereo not drawn) [Example 152, 2-(azetidin-3-yl)-4-(4-chlorophenyl)-5-(3,8-dimethyl-[1,2,4]triazolo[4,3-a]pyridin-6-yl)-3-methyl-4,5-dihydropyrrolo[3,4-c]pyrazol-6(2H)-one]	1350 nM	110 nM	78 nM
CC(=O)N1CC(n2nc(C)c3c2C(=O)N(c2cc(C)c(=O)n(C)c2)C3c2ccc(Cl)cc2)C1 (stereo not drawn) [Example 153, 1-(1-acetylazetidin-3-yl)-4-(4-chlorophenyl)-5-(1,5-dimethyl-6-oxo-1,6-dihydropyridin-3-yl)-3-methyl-4,5-dihydropyrrolo[3,4-c]pyrazol-6(1H)-one]	150 nM	130 nM	140 nM
CC(=O)N1CC(n2nc(C)c3c2C(=O)N(c2cc(C)c4nnc(C)n4c2)C3c2ccc(Cl)cc2)C1 (stereo not drawn) [Example 154, 1-(1-acetylazetidin-3-yl)-4-(4-chlorophenyl)-5-(3,8-dimethyl-[1,2,4]triazolo[4,3-a]pyridin-6-yl)-3-methyl-4,5-dihydropyrrolo[3,4-c]pyrazol-6(1H)-one]	208 nM	120 nM	91 nM

Now from value to compound:

IC50 [1]	IC50 [2]	IC50 [3]	SMILES
35.3 nM	39 nM	30 nM	Cc1nn(C(=O)N(C)C)c2c1[C@@H](c1ccc(Cl)cc1)N(c1cc(C)c3nnc(C)n3c1)C2=O [Example 149, (R)-4-(4-chlorophenyl)-5-(3,8-dimethyl-[1,2,4]triazolo[4,3-a]pyridin-6-yl)-N,N,3-trimethyl-6-oxo-5,6-dihydropyrrolo[3,4-c]pyrazole-1(4H)-carboxamide]
27.8 nM	120 nM	110 nM	Cc1cc(N2C(=O)c3nn(C(=O)N(C)C)c(C)c3[C@H]2c2ccc(Cl)cc2)cn2c(C)nnc12 [Example 150, (R)-4-(4-chlorophenyl)-5-(3,8-dimethyl-[1,2,4]triazolo[4,3-a]pyridin-6-yl)-N,N,3-trimethyl-6-oxo-5,6-dihydropyrrolo[3,4-c]pyrazole-2(4H)-carboxamide]
106 nM	76 nM	87 nM	CCOC(=O)N1CC(n2nc(C)c3c2C(=O)N(c2cc(C)c(=O)n(C)c2)C3c2ccc(Cl)cc2)C1 (stereo not drawn) [Example 155, Ethyl 3-(4-(4-chlorophenyl)-5-(1,5-dimethyl-6-oxo-1,6-dihydropyridin-3-yl)-3-methyl-6-oxo-5,6-dihydropyrrolo[3,4-c]pyrazol-1(4H)-yl)azetidine-1-carboxylate]
43.3 nM	77 nM	49 nM	CCOC(=O)N1CC(n2nc(C)c3c2C(=O)N(c2cc(C)c4nnc(C)n4c2)C3c2ccc(Cl)cc2)C1 (stereo not drawn) [Example 156, Ethyl 3-(4-(4-chlorophenyl)-5-(3,8-dimethyl-[1,2,4]triazolo[4,3-a]pyridin-6-yl)-3-methyl-6-oxo-5,6-dihydropyrrolo[3,4-c]pyrazol-1(4H)-yl)azetidine-1-carboxylate]
99.7 nM	200 nM	77 nM	Cc1nn(C2CN(C)C2)c2c1C(c1ccc(Cl)cc1)N(c1cc(C)c3nnc(C)n3c1)C2=O (stereo not drawn) [Example 157, 4-(4-chlorophenyl)-5-(3,8-dimethyl-[1,2,4]triazolo[4,3-a]pyridin-6-yl)-3-methyl-1-(1-methylazetidin-3-yl)-4,5-dihydropyrrolo[3,4-c]pyrazol-6(1H)-one]
103 nM	93 nM	82 nM	Cc1cc(N2C(=O)c3nn(C4CN(C)C4)c(C)c3C2c2ccc(Cl)cc2)cn2c(C)nnc12 (stereo not drawn) [Example 158, 4-(4-chlorophenyl)-5-(3,8-dimethyl-[1,2,4]triazolo[4,3-a]pyridin-6-yl)-3-methyl-2-(1-methylazetidin-3-yl)-4,5-dihydropyrrolo[3,4-c]pyrazol-6(2H)-one]
33.3 nM	45 nM	40 nM	Cc1nn(C[C@H](O)C(F)(F)F)c2c1[C@@H](c1ccc(Cl)cc1)N(c1cc(C)c3nnc(C)n3c1)C2=O [Example 167, (R)-4-(4-chlorophenyl)-5-(3,8-dimethyl-[1,2,4]triazolo[4,3-a]pyridin-6-yl)-3-methyl-1-((S)-3,3,3-trifluoro-2-hydroxypropyl)-4,5-dihydropyrrolo[3,4-c]pyrazol-6(1H)-one]
